This passage reports Control value results from patent US11412733B2, “Method for enhancing plant disease controlling effects of isofetamid and method for controlling plant diseases” (ISHIHARA SANGYO KAISHA, LTD., priority 2016, dated 2022).

SMILES strings stand for the structures.

Assay type in all cases: in vivo
In test [1] the test system is Sphaerotheca fulidinea. Put plainly: Test Example 1: penetration effect against cucumber powdery mildew. The following applies: isofetamid 400 ppm + product 0.05 wt %, leaf adaxial surface, 1,000 L/ha, abaxial inoculation after 4 days, No addition = without component (b). On the procedure: Cucumber (cultivar: Sagamihanjiro Fushinari) was cultivated in a polyethylene pot having a diameter of 7.5 cm, and when the cucumber reached 1.5-leaf stage, an isofetamid 400 ppm solution prepared by adding an aqueous solution (0.05 wt %) of each of products containing the component (b) as identified in Tables 1-1 to 1-6 to isofetamid, was applied to the leaf adaxial surface by means of a spray gun in an amount of 1,000 L/ha (20 ml/0.2 m^2). After the chemical solution dried, the cucumber was cultivated in a greenhouse for 4 days, the leaf abaxial surface was sprayed and inoculated with a suspension of conidia of Sphaerotheca fulidinea, and the cucumber was cultivated in a room at 22° C. under illumination for 7 to 8 days. The lesion area ratio on the abaxial surface of the first leaf was examined, and the control value was calculated based on the following formula. In Tables, “no addition” means the above treatment without adding the component (b) (the same applies hereinafter). Control value=(1−a/b)×100
(§1) a: lesion area ratio in treated plot, b: lesion area ratio in non-treated plot

Test [2] deals with Corynesbora cassiicora. Briefly: Test Example 2: penetration effect against cucumber leaf spot. The following applies: isofetamid 400 ppm + product 0.05 wt %, leaf adaxial surface, 1,000 L/ha; abaxial inoculation after 4 days; examined 7 days after inoculation.
From the text: Cucumber (cultivar: Natsusuzumi) was cultivated in a polyethylene pot having a diameter of 7.5 cm, and when the cucumber reached 1.5-leaf stage, an isofetamid 400 ppm solution prepared by adding an aqueous solution (0.05 wt %) of each of products containing the component (b) as identified in Table 2 to isofetamid, was applied to the leaf adaxial surface by means of a spray gun in an amount corresponding to 1,000 L/ha. The cucumber was cultivated in a greenhouse for 4 days, and the leaf abaxial surface was sprayed and inoculated with a suspension of conidia of Corynesbora cassiicora, and the cucumber was kept under humidified chamber conditions at 23° C. for 24 hours. Thereafter, the cucumber was kept in a thermostatic chamber at 20° C., and 7 days after the inoculation, the lesion area ratio on the first leaf was examined, and the control value was calculated based on the following formula. Control value=(1−a/b)×100
Test [3] has as its system Corynesbora cassiicora. Briefly: Test Example 3: curative effect against cucumber leaf spot. To be noted: inoculated 24 hours before treatment; isofetamid 400 ppm + product 0.05 wt %, 1,000 L/ha; examined 7 days after inoculation. The source says: Cucumber (cultivar: […] The leaf was air-dried, and an isofetamid 400 ppm solution prepared by adding an aqueous solution (0.05 wt %) of each of products containing the component (b) as identified in Table 3 to isofetamid, was applied by means of a spray gun in an amount corresponding to 1,000 L/ha. […] a: lesion area ratio in treated plot, b: lesion area ratio in non-treated plot

Test [4] concerns Sphaerotheca fulidinea. Put plainly: Test Example 4: rainfastness against cucumber powdery mildew. To be noted: isofetamid 200 ppm + product 0.05 wt %, 1,000 L/ha; after 2 days rainfall 40 mm per hour for one hour, then adaxial inoculation. On the procedure:
Cucumber (cultivar: […] After the chemical solution dried, the cucumber was cultivated in a greenhouse for 2 days, and rainfall treatment (rainfall intensity: 40 mm per hour) was carried out by means of an artificial rainfall apparatus for one hour, and after drying, the leaf adaxial surface was sprayed and inoculated with a suspension of conidia of Sphaerotheca fulidinea, and the cucumber was cultivated in a room at 20° C. under illumination for 7 days. The lesion area ratio on the adaxial surface of the first leaf was examined, and the control value was calculated based on the following formula. […] a: lesion area ratio in treated plot, b: lesion area ratio in non-treated plot

In test [5] the test system is Corynespora cassiicora. Put plainly: Test Example 5: penetration effect against cucumber leaf spot with different surfactant concentrations. The following applies: isofetamid 200 ppm without component (b); abaxial inoculation after 3 days. On the procedure:
Cucumber (cultivar: […] The cucumber was cultivated in a greenhouse for 3 days, and the leaf abaxial side was sprayed and inoculated with a suspension of conidia of Corynespora cassiicora, and the cucumber was kept under humidified chamber conditions at 23° C. for 24 hours. […] a: lesion area ratio in treated plot, b: lesion area ratio in non-treated plot

In test [6] the test system is Sphaerotheca fulidinea. Put plainly: Test Example 6: penetration effect against cucumber powdery mildew. The following applies: isofetamid 400 ppm + product 0.025 wt %, leaf adaxial surface, 1,000 L/ha; abaxial inoculation after 4 days.
From the text: Cucumber (cultivar: Sagamihanjiro Fushinari) was cultivated in a polyethylene pot having a diameter of 7.5 cm, and when the cucumber reached 1.5-leaf stage, an isofetamid 400 ppm solution prepared by adding an aqueous solution (0.025 wt %) of each of products containing the component (b) as identified in Table 6 to isofetamid was applied to the leaf adaxial surface by means of a spray gun in an amount corresponding to 1,000 L/ha. The cucumber was cultivated in a greenhouse for 4 days, and then the leaf abaxial side was sprayed and inoculated with a suspension of conidia of Sphaerotheca fulidinea, and the cucumber was cultivated in a room at 22° C. under illumination for 7 days. The lesion area ratio on the abaxial side of the first leaf was examined, and the control value was calculated based on the following formula. Control value=(1−a/b)×100
as §1

The test system of test [7] is Corynespora cassiicora. Briefly: Test Example 7: residual effect against cucumber leaf spot. To be noted: isofetamid 200 ppm + product 0.05 wt %, four-leaf stage, 1,000 L/ha; inoculation after 7 days. On the procedure:
Cucumber (cultivar: […] After the chemical solution dried, the cucumber was cultivated in a greenhouse for 7 days, and the cucumber was sprayed and inoculated with a suspension of conidia of Corynespora cassiicora, and kept under humidified chamber conditions at 23° C. for 24 hours. Thereafter, the cucumber was cultivated in a room at 20° C. under illumination for 7 days. The lesion area ratio on the first leaf was examined, and the control value was calculated based on the following formula. The obtained results are shown in Table 7. […] a: lesion area ratio in treated plot, b: lesion area ratio in non-treated plot

For `Cc1cc(OC(C)C)ccc1C(=O)C(C)(C)NC(=O)c1sccc1C` [No addition, isofetamid], the Control value in the test on Sphaerotheca fulidinea [1] (Table 1-1) turned out to be 0; in the test with Sphaerotheca fulidinea [1] (Table 1-2), 6; in the test with Sphaerotheca fulidinea [1] (Table 1-3) it was 4; in the test on Sphaerotheca fulidinea [1] (Table 1-4) it was 11; in the test on Sphaerotheca fulidinea [1] (Table 1-5), 14; with Sphaerotheca fulidinea [1] (Table 1-6), 68. The Control value amounted to 68 with Corynesbora cassiicora [2]; 0 in the test on Corynesbora cassiicora [3]; 62 in the test with Sphaerotheca fulidinea [4]; 66.7 with Corynespora cassiicora [5]; 54.6 with Sphaerotheca fulidinea [6]; 80 in the test with Corynespora cassiicora [7].
